Calls of active or inactive are those of the source.
Tests used:
[1] = cells; conditions: A549
[2] = target: Induced myeloid leukemia cell differentiation protein Mcl-1 (Homo sapiens, UniProt Q07820); format: functional
[3] = inhibitors of PGC1a acetylation in cells, dose response, cell-based, cherry-picked samples (AID 720514); format: functional;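 note: potency may reflect raised or lowered acetylation signal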
[4] = THP-1 cell cytotoxicity, dose response, cytotoxicity control for Vif-APOBEC3G degradation inhibitor project, THP-1 cells (AID 1117359); format: functional; conditions: Human immunodeficiency virus 1, THP-1
[5] = inhibitors of non-replicating M. tuberculosis, dose response, luciferase, dry powder (AID 651620); format: functional; conditions: Mycobacterium tuberculosis
[6] = inhibitors of non-replicating M. tuberculosis, dose response, luciferase, dry powder (AID 651619); format: functional; conditions: Mycobacterium tuberculosis
[7] = HeLa cell cytotoxicity, dose response, cytotoxicity control, 24 h, plate reader, powder samples, set 3 (AID 651864); format: functional, cell-based
[8] = HepG2 cell cytotoxicity, dose response, cytotoxicity control for Shn3 inhibitor project, CellTiter-Glo, cherry-picked (AID 624134); format: functional, cell-based
[9] = reduction of Shn3 3'UTR firefly luciferase signal, dose response, Schnurri-3 inhibitor project, cell-based, Clone20 osteoblasts, cherry-pick, set 2 (AID 720490); format: functional;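 note: actives lower the luminescence signal as inhibitors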
[10] = control 3'UTR Renilla luciferase suppression, dose response, counter-screen for Shn3 inhibitor project, cell-based, Clone20-Shn3RL, cherry-picked (AID 624133); format: functional
[11] = Shn3 3'UTR reporter inhibitors, dose response, cell-based, Clone20 osteoblasts, firefly luciferase, cherry-picked (AID 624132); format: functional;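 note: firefly luciferase luminescence from reporter carrying the Shn3 3'UTR in osteoblasts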
[12] = Luminescence Cell-Based Dose Confirmation HTS to Identify Inhibitors of Platelet Dense Granule Release. [Related pubchem assays: 1663 (Primary HTS), 1678 (Summary of Project)]; format: functional
[13] = cytotoxicity toward DRD oncogenic fibroblasts, dose response, cell-based, non-viral oncogenic, luminescence (AID 1934); format: functional; conditions: Homo sapiens
[14] = cells; format: functional, cell-based
[15] = tested on: BJ; assay: cytotoxicity toward BJ-TERT fibroblasts, dose response, cell-based, RAS-independent, luminescence (AID 1933); format: functional; conditions: Homo sapiens
[16] = LGR2 antagonists, dose response, cell-based, HEK293, CRE-luciferase reporter, cherry pick, set 2 (AID 743343); format: functional;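 note: transfected cells were stimulated with diluted bursicon conditioned medium after compound addition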
[17] = tested on: BJ; assay: cytotoxicity toward BJ-TERT-LT-ST fibroblasts, dose response, cell-based, RAS-independent, luminescence (AID 1935); format: functional; conditions: Homo sapiens;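 note: BJ fibroblasts immortalized with TERT plus LT and ST oncogenes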
[18] = A549 cell cytotoxicity, dose response, cytotoxicity control, plate reader, cherry-pick, antagonist series (AID 743412); format: functional, cell-based
[19] = HepG2 cell cytotoxicity, dose response, cytotoxicity control, plate reader, cherry-pick, antagonist series (AID 743416); format: functional, cell-based
[20] = tested on: BJ; assay: cells; format: functional, cell-based; conditions: Homo sapiens
[21] = HEK293 cell cytotoxicity, dose response, cytotoxicity control, plate reader, cherry-picked samples (AID 743446); format: functional, cell-based
[22] = tested on: INS1; assay: beta cell apoptosis inhibitors, cytokine rescue, dose response, luminescence, retest (AID 449756); format: functional, cell-based; conditions: Rattus norvegicus;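 note: cell death triggered by IL-1 beta plus TNF-alpha plus IFN-gamma mixture; protective hits raise ATP signal compared with cytokine alone wells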
[23] = cells; format: functional, cell-based; remark: listed apart in the source
[24] = MC4R antagonists, dose response, counter-screen for LGR2 antagonist project, cell-based, plate reader, cherry pick (AID 743444); format: functional;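 note: transfected HEK 293 cells stimulated with alpha-MSH peptide; potency of inhibitors of the alpha-MSH evoked signal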
[25] = target: Luciferin 4-monooxygenase (Photinus pyralis, UniProt P08659); assay: firefly luciferase enzyme inhibitors, dose response, biochemical, luminescence (AID 1891)
[26] = T. cruzi intracellular amastigote growth inhibition, dose response, imaging, CA-I/72 strain, bovine embryo skeletal muscle, dry powder (AID 651885); format: functional, cell-based
[27] = target: T1, Voltage-gated N-type calcium channel alpha-1B subunit/Amyloid beta A4 precursor protein-binding family A member 1 (Homo sapiens, UniProt Q00975+Q02410); format: protein assay
[28] = target: Glucose-6-phosphate 1-dehydrogenase (Homo sapiens, UniProt P11413); assay: human G6PD enzyme inhibitors, dose response, selectivity assay for P. falciparum G6PD inhibitor project, biochemical, fluorescence (AID 504792); format: functional
[29] = target: T2, Sentrin-specific protease 8 (Homo sapiens, UniProt Q96LD8); format: functional
T2 sequence (Q96LD8 whole entry): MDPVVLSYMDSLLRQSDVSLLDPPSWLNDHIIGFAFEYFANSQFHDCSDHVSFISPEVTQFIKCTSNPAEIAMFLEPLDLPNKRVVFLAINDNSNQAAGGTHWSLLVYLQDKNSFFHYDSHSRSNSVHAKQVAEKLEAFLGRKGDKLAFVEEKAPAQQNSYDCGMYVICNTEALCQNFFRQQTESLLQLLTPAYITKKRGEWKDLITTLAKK

[30] = target: fMet-Leu-Phe receptor (Homo sapiens, UniProt P21462); assay: FPR ligands, dose response (AID 519); format: functional
[31] = target: T1, Voltage-gated N-type calcium channel alpha-1B subunit/Amyloid beta A4 precursor protein-binding family A member 1; format: protein assay; remark: listed apart in the source
[32] = target: T2, Sentrin-specific protease 8; format: functional; remark: listed apart in the source
[33] = T. cruzi growth inhibition in host cells, dose response, cell-based, plate reader, dry powder, set 2 (AID 652275); format: functional
[34] = HEK293 cell viability, dose response, counter-screen for EBV LMP1 inhibitor project, dry powder, set 2 (AID 624374); format: functional
[35] = HepG2 cell cytotoxicity, dose response, cytotoxicity control, luminescence plate reader, powder samples, set 2 (AID 651860); format: functional, cell-based
[36] = target: Matrix metalloproteinase-14 (Homo sapiens, UniProt P50281); assay: Dose Response confirmation of uHTS hits for a small molecule inhibitors of MT1-MMP activation in a fluorescence assay set 1.; format: functional
[37] = target: Metabotropic glutamate receptor 3 (Rattus norvegicus, UniProt P31422); assay: mGlu3 NAM potency via calcium readout, dose response, mGlu3 NAM project, TREx293 cells, Galpha15, calcium flux (AID 651840); format: functional
[38] = target: Potassium channel subfamily K member 3 (Homo sapiens, UniProt O14649); assay: TASK1 (KCNK3) potassium channel inhibitors, SAR follow-up, CHO cells, FluxOR thallium flux (AID 652212); format: functional
[39] = target: Potassium channel subfamily K member 9 (Homo sapiens, UniProt Q9NPC2); assay: TASK3 (KCNK9) channel inhibitors, thallium flux, SAR follow-up, selectivity assay for TASK1 inhibitor project, cell-based, FluxOR thallium flux, concentration-response (AID 652211); format: functional;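 note: potency is for inhibitors of the channel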
[40] = tested on: Vero; assay: cells; format: functional; conditions: Chlorocebus sabaeus
[41] = HeLa cell cytotoxicity, dose response, cytotoxicity control for MgcRacGAP inhibitor project (AID 624300); format: functional
[42] = target: Protein Wnt-3a (Mus musculus, UniProt P27467); assay: SAR analysis of small molecule antagonists of Gli-SUFU in a Wnt3a luminescent reporter assay.; format: functional
[43] = HepG2 cell cytotoxicity, dose response, cytotoxicity control, ATP luminescence, cherry-pick, activator set 2 (AID 1053143); format: functional, cell-based
[44] = target: Long-chain-fatty-acid--AMP ligase FadD28 (Mycobacterium tuberculosis, UniProt P9WQ59); assay: Fluorescence polarization aasay to screen for inhibitors that compete for the binding of FadD28 to a bisubstrate Measured in Biochemical System Using Plate Reader - 2147-01_Inhibitor_Dose_CherryPick_Activity.; format: functional, Mycobacterium tuberculosis H37Rv
[45] = tested on: A549; assay: A549 cell toxicity, dose response, cytotoxicity control, plate reader, cherry-pick samples (AID 687028); format: functional, cell-based; conditions: Homo sapiens
[46] = miR-122Act:qPCR miR-122 Measured in Cell-Based System Using RT-PCR - 2144-04_Activator_Dose_CherryPick_Activity. (absACnn = the concentration at which the curve crosses threshold nn uM); format: functional
[47] = miR-122 activators in hepatoma reporter cells, dose response, cell-based, Huh7 psiCHECK-miR122, Renilla luciferase, cherry-picked (AID 651956); format: functional;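 note: huh7 hepatoma cells stably carrying a psiCHECK-2 miR-122 sensor plasmid; renilla luciferase signal reporting endogenous miR-122 activity after 48 h compound exposure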
[48] = target: Broad substrate specificity ATP-binding cassette transporter ABCG2 (Homo sapiens, UniProt Q9UNQ0); assay: ABCG2 efflux pump inhibitors, dose response, Ig-MXP3 cells, flow cytometry (AID 1690); format: functional
[49] = target: ATP-dependent translocase ABCB1 (Homo sapiens, UniProt P08183); assay: ABCB1 efflux pump inhibitor potency, dose response, Jurkat-DNR cells, JC-1, flow cytometry (AID 1689); format: functional

T1 sequence (Q00975 whole entry): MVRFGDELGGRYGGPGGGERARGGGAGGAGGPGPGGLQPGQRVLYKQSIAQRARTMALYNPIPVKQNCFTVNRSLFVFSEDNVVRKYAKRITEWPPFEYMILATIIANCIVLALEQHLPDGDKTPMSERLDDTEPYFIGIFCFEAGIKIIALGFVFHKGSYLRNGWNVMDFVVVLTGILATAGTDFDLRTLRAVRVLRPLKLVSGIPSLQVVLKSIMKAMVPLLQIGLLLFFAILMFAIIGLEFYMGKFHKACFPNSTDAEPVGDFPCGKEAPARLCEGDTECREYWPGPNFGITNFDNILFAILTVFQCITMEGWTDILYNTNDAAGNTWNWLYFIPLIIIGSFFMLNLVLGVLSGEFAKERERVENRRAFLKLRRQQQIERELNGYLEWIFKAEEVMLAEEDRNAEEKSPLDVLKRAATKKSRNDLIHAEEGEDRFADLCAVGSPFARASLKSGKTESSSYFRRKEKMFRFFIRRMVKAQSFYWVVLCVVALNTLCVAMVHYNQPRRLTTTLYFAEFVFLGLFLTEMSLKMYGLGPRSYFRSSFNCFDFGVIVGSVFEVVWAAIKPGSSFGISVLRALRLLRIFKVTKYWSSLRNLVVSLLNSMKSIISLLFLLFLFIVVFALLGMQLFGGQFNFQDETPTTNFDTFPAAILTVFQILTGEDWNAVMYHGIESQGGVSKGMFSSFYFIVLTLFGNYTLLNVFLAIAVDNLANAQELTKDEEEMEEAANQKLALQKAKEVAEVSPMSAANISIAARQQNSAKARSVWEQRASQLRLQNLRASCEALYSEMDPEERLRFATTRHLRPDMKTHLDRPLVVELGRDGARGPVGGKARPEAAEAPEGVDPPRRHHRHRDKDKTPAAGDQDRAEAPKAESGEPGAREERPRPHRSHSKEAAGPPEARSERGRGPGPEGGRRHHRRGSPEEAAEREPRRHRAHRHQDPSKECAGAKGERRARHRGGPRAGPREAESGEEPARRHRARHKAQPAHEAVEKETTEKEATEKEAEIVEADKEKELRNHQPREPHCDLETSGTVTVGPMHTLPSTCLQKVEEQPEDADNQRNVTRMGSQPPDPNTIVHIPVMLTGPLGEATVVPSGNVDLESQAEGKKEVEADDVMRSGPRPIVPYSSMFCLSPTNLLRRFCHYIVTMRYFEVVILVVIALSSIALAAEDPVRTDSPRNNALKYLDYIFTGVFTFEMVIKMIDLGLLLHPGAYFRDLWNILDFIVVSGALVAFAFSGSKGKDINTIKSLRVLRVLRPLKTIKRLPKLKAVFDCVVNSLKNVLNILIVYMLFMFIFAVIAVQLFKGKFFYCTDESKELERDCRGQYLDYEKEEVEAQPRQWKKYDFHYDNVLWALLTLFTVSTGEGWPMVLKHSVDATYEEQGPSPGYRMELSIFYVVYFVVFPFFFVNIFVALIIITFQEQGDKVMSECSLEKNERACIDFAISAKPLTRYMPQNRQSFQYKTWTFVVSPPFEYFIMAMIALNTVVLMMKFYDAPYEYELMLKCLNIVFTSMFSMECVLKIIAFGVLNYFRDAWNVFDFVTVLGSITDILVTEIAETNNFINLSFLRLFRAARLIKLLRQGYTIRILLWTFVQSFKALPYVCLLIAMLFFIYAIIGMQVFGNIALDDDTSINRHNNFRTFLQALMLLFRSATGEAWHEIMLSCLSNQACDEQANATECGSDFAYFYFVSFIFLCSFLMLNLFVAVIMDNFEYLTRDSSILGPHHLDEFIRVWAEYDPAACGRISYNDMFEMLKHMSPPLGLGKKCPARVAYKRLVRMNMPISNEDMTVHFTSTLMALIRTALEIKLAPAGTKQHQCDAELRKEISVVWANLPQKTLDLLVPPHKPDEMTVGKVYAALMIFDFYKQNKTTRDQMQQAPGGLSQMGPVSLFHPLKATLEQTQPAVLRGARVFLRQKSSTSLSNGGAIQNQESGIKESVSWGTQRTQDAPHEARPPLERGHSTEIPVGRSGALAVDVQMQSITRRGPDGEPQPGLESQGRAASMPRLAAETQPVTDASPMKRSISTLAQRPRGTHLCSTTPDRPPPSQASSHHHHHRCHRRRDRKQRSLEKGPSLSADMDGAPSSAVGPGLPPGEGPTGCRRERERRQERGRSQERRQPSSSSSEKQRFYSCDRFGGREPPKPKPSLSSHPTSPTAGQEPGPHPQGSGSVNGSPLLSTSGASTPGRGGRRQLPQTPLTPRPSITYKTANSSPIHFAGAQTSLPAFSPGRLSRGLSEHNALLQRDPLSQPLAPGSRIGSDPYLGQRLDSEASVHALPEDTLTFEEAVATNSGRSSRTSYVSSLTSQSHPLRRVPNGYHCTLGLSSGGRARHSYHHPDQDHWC
T1 sequence (Q02410 whole entry): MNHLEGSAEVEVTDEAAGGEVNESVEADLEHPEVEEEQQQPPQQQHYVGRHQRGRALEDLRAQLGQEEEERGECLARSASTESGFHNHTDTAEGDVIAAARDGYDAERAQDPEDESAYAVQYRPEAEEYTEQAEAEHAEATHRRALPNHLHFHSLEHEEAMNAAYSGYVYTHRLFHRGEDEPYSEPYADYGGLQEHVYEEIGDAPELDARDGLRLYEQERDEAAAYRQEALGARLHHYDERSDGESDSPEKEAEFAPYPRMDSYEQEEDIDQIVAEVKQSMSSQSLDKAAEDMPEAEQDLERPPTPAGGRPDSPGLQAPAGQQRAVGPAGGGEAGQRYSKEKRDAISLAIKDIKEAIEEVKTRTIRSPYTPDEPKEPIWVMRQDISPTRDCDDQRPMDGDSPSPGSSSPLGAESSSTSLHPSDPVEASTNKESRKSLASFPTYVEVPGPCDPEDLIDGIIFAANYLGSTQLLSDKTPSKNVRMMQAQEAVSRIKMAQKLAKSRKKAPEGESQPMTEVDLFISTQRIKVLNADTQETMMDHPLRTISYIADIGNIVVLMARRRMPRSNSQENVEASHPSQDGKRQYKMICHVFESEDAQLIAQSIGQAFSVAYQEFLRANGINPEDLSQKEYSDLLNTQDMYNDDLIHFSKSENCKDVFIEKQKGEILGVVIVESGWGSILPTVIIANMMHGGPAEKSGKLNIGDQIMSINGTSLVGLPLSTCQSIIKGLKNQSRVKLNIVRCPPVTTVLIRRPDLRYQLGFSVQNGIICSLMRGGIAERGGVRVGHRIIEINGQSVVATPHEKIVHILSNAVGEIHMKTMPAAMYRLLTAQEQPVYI
Induced myeloid leukemia cell differentiation protein Mcl-1, sequence (Q07820 whole entry): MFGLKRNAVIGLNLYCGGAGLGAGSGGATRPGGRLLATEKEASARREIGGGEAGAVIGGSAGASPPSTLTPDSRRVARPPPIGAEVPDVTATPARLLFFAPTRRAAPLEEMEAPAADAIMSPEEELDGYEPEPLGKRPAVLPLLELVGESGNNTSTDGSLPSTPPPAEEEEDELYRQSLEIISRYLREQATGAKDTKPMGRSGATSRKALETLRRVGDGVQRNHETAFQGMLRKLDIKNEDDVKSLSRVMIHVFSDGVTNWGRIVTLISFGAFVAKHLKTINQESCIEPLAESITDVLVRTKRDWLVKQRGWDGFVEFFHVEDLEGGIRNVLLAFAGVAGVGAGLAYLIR
Potassium channel subfamily K member 3, sequence (O14649 whole entry): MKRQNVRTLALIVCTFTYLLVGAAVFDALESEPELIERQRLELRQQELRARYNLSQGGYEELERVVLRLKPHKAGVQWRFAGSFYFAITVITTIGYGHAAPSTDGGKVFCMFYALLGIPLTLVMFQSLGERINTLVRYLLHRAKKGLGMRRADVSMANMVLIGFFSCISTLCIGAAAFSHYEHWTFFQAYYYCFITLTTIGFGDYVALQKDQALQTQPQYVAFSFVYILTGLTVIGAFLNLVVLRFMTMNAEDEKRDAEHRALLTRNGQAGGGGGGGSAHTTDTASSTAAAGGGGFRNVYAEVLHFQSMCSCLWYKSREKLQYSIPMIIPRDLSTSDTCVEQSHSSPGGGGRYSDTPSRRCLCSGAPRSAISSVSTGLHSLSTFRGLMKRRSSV
fMet-Leu-Phe receptor, sequence (P21462 whole entry): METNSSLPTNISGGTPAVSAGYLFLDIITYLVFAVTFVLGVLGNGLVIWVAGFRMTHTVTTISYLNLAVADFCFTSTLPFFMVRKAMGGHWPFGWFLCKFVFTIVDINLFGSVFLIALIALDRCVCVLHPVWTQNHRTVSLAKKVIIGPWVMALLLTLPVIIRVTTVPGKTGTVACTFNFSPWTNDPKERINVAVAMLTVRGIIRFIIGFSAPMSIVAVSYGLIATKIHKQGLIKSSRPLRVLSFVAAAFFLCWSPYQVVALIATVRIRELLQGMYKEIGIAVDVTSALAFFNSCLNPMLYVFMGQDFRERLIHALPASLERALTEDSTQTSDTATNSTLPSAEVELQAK
Protein Wnt-3a, sequence (P27467 whole entry): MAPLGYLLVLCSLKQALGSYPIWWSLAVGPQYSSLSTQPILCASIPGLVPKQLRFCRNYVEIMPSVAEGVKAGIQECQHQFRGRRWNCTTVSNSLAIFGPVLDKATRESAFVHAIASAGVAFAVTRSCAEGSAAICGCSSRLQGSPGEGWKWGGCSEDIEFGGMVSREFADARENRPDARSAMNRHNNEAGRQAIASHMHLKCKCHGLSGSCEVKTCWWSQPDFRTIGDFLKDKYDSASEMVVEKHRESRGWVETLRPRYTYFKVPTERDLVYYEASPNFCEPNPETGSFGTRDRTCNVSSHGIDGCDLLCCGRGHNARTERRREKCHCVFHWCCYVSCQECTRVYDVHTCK
Potassium channel subfamily K member 9, sequence (Q9NPC2 whole entry): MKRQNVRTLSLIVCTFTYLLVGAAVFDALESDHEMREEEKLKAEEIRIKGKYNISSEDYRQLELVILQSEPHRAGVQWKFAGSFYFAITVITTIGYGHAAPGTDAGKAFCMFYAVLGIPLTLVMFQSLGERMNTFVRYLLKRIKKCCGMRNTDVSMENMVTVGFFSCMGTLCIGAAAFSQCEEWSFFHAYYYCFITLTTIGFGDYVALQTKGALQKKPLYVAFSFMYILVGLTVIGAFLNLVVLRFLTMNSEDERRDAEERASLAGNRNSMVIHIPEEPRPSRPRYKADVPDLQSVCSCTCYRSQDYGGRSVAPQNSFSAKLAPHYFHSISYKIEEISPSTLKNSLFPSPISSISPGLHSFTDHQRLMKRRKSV

In the case of Cc1cccn2c(=O)c3cc(C(=O)NCc4ccco4)c(=N)n(CCc4ccccc4)c3nc12, the AC50 [1] is reported as 39.9 µM (active), the IC50 [2] is reported as 3.57 µM (active) and the AC50 [3] is reported as 28.4 µM (active). For the same compound, the CC50 [4] was 38.1 µM (active).

With c1ccc(CSc2nnc(-c3ccncc3)o2)nc1 the IC90 [5] was 16 µM (active) and the IC90 [6] was 16 µM (active).

In the case of CCCn1nnnc1NCc1ccc(N2CCCC2)cc1, the AC50 [7] is reported as > 160 µM (inactive).

With CC(=O)Nc1ccc(OCC(=O)Nc2ccc(Cl)c(S(=O)(=O)N3CCOCC3)c2)cc1 the AC50 [8] was 53.5 µM (active), the AC50 [9] was 3.49 µM (active) and the AC50 [10] was 9.23 µM (active). The AC50 [11] was 1.59 µM (active).

For Cc1nc2cc(-c3ccccc3)sc2c(=O)n1N, the EC50 [12] was 0.365 µM (active), the EC50 [13] was 3.78 µM (active) and the EC50 [14] was > 350 µM (not active). For the same compound, the EC50 [15] was 5.93 µM (active), the AC50 [16] was 0.868 µM (active) and the EC50 [17] was 12 µM (active). The AC50 [18] was 5.97 µM (active), the AC50 [19] was 5.13 µM (active) and the EC50 [20] was 2.32 µM (inconclusive). For the same compound, the AC50 [21] was 5.12 µM (active), the AC50 [22] was 3.95 µM (active) and the EC50 [23] was 7.12 µM (active). For the same compound, the AC50 [24] was 1.17 µM (active) and the EC50 [25] was 0.546 µM (active).

In the case of C[C@H]1CN([C@@H](C)CO)C(=O)c2cccc(NC(=O)c3ccncc3)c2O[C@@H]1CN(C)Cc1ccncc1, the IC50 [26] is reported as > 20 µM (inactive).

For COc1ccc2ccccc2c1C1CC(=O)N2CN(C3CCCCC3)CSC2=C1C#N (centres undefined), the IC50 [27] was > 56.8 µM (not active), the IC50 [28] was > 80 µM (inactive) and the IC50 [29] was 0.632 µM (active). For the same compound, the Ki [30] was 19.7 µM (inactive), the IC50 [31] was > 50 µM (inactive) and the IC50 [32] was 5.43 µM (active).

With C[C@H]1CN([C@@H](C)CO)C(=O)c2cccc(NC(=O)c3ccncc3)c2O[C@@H]1CN(C)Cc1cccc(Cl)c1Cl the AC50 [33] was 0.0255 µM (active).

C[C@@H]1CN([C@@H](C)CO)C(=O)Cc2cc(NC(=O)Cc3ccccc3)ccc2O[C@@H]1CN(C)Cc1ccc(C(F)(F)F)cc1 showed an AbsAC35 [34] of 279.95 µM.

With O=C(O)[C@@H]1CCCC[C@@H]1C(=O)N1CCc2ccccc2[C@@H]1CN1C(=O)c2ccccc2C1=O the AC50 [35] was > 52 µM (inactive).

With CCCN1/C(=C2/SC(=S)N(CC)C2=O)C=Cc2ccccc21 the IC50 [36] was 30.6 µM (inactive).

In the case of COc1ccc(C#Cc2ccc(C(=O)NC(C)CO)cc2)cc1 (centres undefined), the IC50 [37] is reported as 4.73 µM.

In the case of CCOc1ccccc1NC(=O)c1cccc(NC(=O)C2CC2)c1, the IC50 [38] is reported as 1.07 µM (active) and the IC50 [39] is reported as 10.2 µM (active).

With O=[N+]([O-])/C=C/c1cc2ccccc2[nH]1 the CC50 [40] was > 25 µM (active) and the CC50 [41] was 94.6 µM (active).

For CC(C)(C)OC(=O)N1CCN(c2cc(NC(=O)c3ccccc3)ncn2)CC1, the IC50 [42] was > 21.8 µM (inactive).

For Cc1ccc(-c2noc(-c3ccccc3F)n2)cc1, the AC50 [43] was 26 µM (active).

With O=C(NC(NC(=S)N1CCOCC1)C(Cl)(Cl)Cl)c1cccc2ccccc12 (centres undefined) the AC50 [44] was > 100 µM (inactive).

For COc1ccc(-c2cc(NC=O)c3ncc(-c4cc(OC)c(OC)c(OC)c4)n3c2)c(OC)c1, the AC50 [45] was 13.6 µM (active).

For Cc1cccc(NC(=O)Nc2ccc3c(c2)C(=O)N(C)[C@@H]2CC[C@H](CC(=O)NCc4ccccc4Cl)O[C@H]2CO3)c1, the AbsAC40_uM [46] was 8.38 µM and the AC50 [47] was 9.59 µM (active).

In the case of N#Cc1ccc(COC(=O)c2ccc(N3CCCC3)c([N+](=O)[O-])c2)cc1, the EC50 [48] is reported as 0.45 µM (inactive) and the EC50 [49] is reported as 12 µM (inactive).

From ChEMBL document CHEMBL1201862, “PubChem BioAssay data set” (2004)
